Assay results: ChEMBL document CHEMBL3734724, “Anticancer efficacy of unique pyridine-based tetraindoles” (Eur J Med Chem, 2015)

Experiments:
[1] = Cytotoxicity against human M10 cells assessed as growth inhibition at 20 uM after 48 hrs by MTT assay relative to control; assay type: cell-based; settings: read-out: GI
[2] = Cytotoxicity against human Hs578T cells assessed as growth inhibition after 48 hrs by MTT assay; assay type: functional, cell-based; settings: Hs-578T
[3] = Cytotoxicity against human Hs578T cells assessed as growth inhibition at 20 uM after 48 hrs by MTT assay relative to control; assay type: functional; settings: Hs-578T, read-out: GI
[4] = Cytotoxicity against human M10 cells assessed as growth inhibition after 48 hrs by MTT assay; assay type: cell-based; settings: M10, 48 h
[5] = Cytotoxicity against human BT549 cells assessed as growth inhibition at 20 uM after 48 hrs by MTT assay relative to control; assay type: functional; settings: BT-549, 48 h, read-out: GI
MDA-MB-231 [6] = assay: Cytotoxicity against human MDA-MB-231 cells assessed as growth inhibition after 48 hrs by MTT assay; assay type: functional, cell-based; settings: MDA-MB-231, 48 h
MDA-MB-231 [7] = assay: Cytotoxicity against human MDA-MB-231 cells assessed as growth inhibition at 20 uM after 48 hrs by MTT assay relative to control; assay type: functional; settings: MDA-MB-231, 48 h, read-out: GI
[8] = Cytotoxicity against human BT549 cells assessed as growth inhibition after 48 hrs by MTT assay; assay type: functional, cell-based; settings: BT-549, 48 h
MCF7 [9] = assay: Cytotoxicity against human MCF7 cells assessed as growth inhibition at 20 uM after 48 hrs by MTT assay relative to control; assay type: functional; settings: MCF7, 48 h, read-out: GI
MCF7 [10] = assay: Cytotoxicity against human MCF7 cells assessed as growth inhibition after 48 hrs by MTT assay; assay type: functional, cell-based; settings: MCF7, 48 h
4T1 = assay: Antitumor activity against luciferase-expressing mouse 4T1 cells allografted in athymic nude BALB/c mouse assessed as tumor growth inhibition at 12.5 mg/kg/week ip administered on first 3 days in first week followed by two shots on day 1 and day 4 at 6.25 mg/kg/week for another 3 weeks measured every other day until day 28 relative to vehicle-treated control; assay type: functional

SMILES | inhibition at 48 h, 20 µM [1] [%] | IC50 [2] [µM] | inhibition of growth at 20 µM [3] [%] | IC50 [4] [µM] | inhibition of growth at 20 µM [5] [%] | IC50 (MDA-MB-231 [6]) [µM] | inhibition of growth at 20 µM (MDA-MB-231 [7]) [%] | IC50 [8] [µM] | inhibition of growth at 20 µM (MCF7 [9]) [%] | IC50 (MCF7 [10]) [µM] | TGI (4T1) [%]
N#Cc1ccc2[nH]cc(C(c3ccc(C(c4c[nH]c5ccc(C#N)cc45)c4c[nH]c5ccc(C#N)cc45)nc3)c3c[nH]c4ccc(C#N)cc34)c2c1 | 0 | > 20 | 22 | > 20 | 28 | > 20 | 0 | > 20 | 0 | > 20 | –
Oc1ccc2[nH]cc(C(c3ccc(C(c4c[nH]c5ccc(O)cc45)c4c[nH]c5ccc(O)cc45)cc3)c3c[nH]c4ccc(O)cc34)c2c1 | – | – | – | – | – | – | – | – | – | – | 16
Brc1ccc2[nH]cc(C(c3ccc(C(c4c[nH]c5ccc(Br)cc45)c4c[nH]c5ccc(Br)cc45)nc3)c3c[nH]c4ccc(Br)cc34)c2c1 | 0 | > 20 | 0 | > 20 | – | > 20 | 15 | 10 | 0 | > 20 | –
COc1ccc2[nH]cc(C(c3ccc(C(c4c[nH]c5ccc(OC)cc45)c4c[nH]c5ccc(OC)cc45)nc3)c3c[nH]c4ccc(OC)cc34)c2c1 | 0 | > 20 | 21 | > 20 | 48 | > 20 | 11 | > 20 | 29 | > 20 | –
c1ccc(COc2ccc3[nH]cc(C(c4cccc(C(c5c[nH]c6ccc(OCc7ccccc7)cc56)c5c[nH]c6ccc(OCc7ccccc7)cc56)n4)c4c[nH]c5ccc(OCc6ccccc6)cc45)c3c2)cc1 | 30 | > 20 | 0 | > 20 | 40 | > 20 | 0 | > 20 | 0 | > 20 | –
Fc1ccc2[nH]cc(C(c3ccc(C(c4c[nH]c5ccc(F)cc45)c4c[nH]c5ccc(F)cc45)nc3)c3c[nH]c4ccc(F)cc34)c2c1 | – | 17 | – | 19 | – | 8.6 | – | 13.1 | – | 14 | –
N#Cc1ccc2[nH]cc(C(c3cccc(C(c4c[nH]c5ccc(C#N)cc45)c4c[nH]c5ccc(C#N)cc45)n3)c3c[nH]c4ccc(C#N)cc34)c2c1 | 0 | > 20 | 22 | > 20 | – | > 20 | 0 | 13 | 13 | > 20 | –
Brc1ccc2[nH]cc(C(c3cccc(C(c4c[nH]c5ccc(Br)cc45)c4c[nH]c5ccc(Br)cc45)n3)c3c[nH]c4ccc(Br)cc34)c2c1 | 0 | > 20 | 0 | > 20 | 15 | > 20 | 13 | > 20 | 0 | > 20 | –
c1ccc2c(C(c3ccc(C(c4c[nH]c5ccccc45)c4c[nH]c5ccccc45)nc3)c3c[nH]c4ccccc34)c[nH]c2c1 | 26 | 9 | – | > 20 | – | > 20 | 4 | 15 | 21 | > 20 | –
Oc1ccc2[nH]cc(C(c3cccc(C(c4c[nH]c5ccc(O)cc45)c4c[nH]c5ccc(O)cc45)n3)c3c[nH]c4ccc(O)cc34)c2c1 | 9 | > 20 | 2 | > 20 | 10 | 10.3 | – | > 20 | 11 | > 20 | –
COc1ccc2[nH]cc(C(c3cccc(C(c4c[nH]c5ccc(OC)cc45)c4c[nH]c5ccc(OC)cc45)n3)c3c[nH]c4ccc(OC)cc34)c2c1 | 0 | > 20 | 18 | > 20 | – | > 20 | 0 | 14 | 9 | > 20 | –
Fc1ccc2[nH]cc(C(c3cccc(C(c4c[nH]c5ccc(F)cc45)c4c[nH]c5ccc(F)cc45)n3)c3c[nH]c4ccc(F)cc34)c2c1 | – | 8.9 | – | 12 | – | 9.6 | – | 9.7 | – | 20 | –
c1cc(C(c2c[nH]c3ccccc23)c2c[nH]c3ccccc23)nc(C(c2c[nH]c3ccccc23)c2c[nH]c3ccccc23)c1 | 32 | > 20 | 8 | > 20 | 22 | > 20 | 29 | > 20 | 47 | > 20 | –
Clc1ccc2[nH]cc(C(c3cccc(C(c4c[nH]c5ccc(Cl)cc45)c4c[nH]c5ccc(Cl)cc45)n3)c3c[nH]c4ccc(Cl)cc34)c2c1 | 28 | > 20 | 5 | > 20 | – | > 20 | 0 | 6 | 20 | > 20 | –
Clc1ccc2[nH]cc(C(c3ccc(C(c4c[nH]c5ccc(Cl)cc45)c4c[nH]c5ccc(Cl)cc45)nc3)c3c[nH]c4ccc(Cl)cc34)c2c1 | 25 | > 20 | 0 | > 20 | 23 | > 20 | 9 | > 20 | 11 | > 20 | –
Oc1ccc2c(C(c3ccc(C(c4c[nH]c5cc(O)ccc45)c4c[nH]c5cc(O)ccc45)nc3)c3c[nH]c4cc(O)ccc34)c[nH]c2c1 | 0 | > 20 | 0 | > 20 | 19 | 14 | – | > 20 | 0 | > 20 | –
